We go through 22 compounds from patent publication US20260317320A1, “C5AR1 ANTAGONISTS AND USES THEREOF” (Vanqua Bio, Inc., priority 2022, published 2026).

The target of experiment [1] is T1, complement C5a receptor 1 (C5aR1) (Homo sapiens, UniProt P21730).
T1 construct: β-galactosidase fragment (PathHunter enzyme complementation); host or cells: CHO-K1 (PathHunter CHO-K1 C5aR1 β-arrestin cell line)
T1 sequence (P21730 1-350): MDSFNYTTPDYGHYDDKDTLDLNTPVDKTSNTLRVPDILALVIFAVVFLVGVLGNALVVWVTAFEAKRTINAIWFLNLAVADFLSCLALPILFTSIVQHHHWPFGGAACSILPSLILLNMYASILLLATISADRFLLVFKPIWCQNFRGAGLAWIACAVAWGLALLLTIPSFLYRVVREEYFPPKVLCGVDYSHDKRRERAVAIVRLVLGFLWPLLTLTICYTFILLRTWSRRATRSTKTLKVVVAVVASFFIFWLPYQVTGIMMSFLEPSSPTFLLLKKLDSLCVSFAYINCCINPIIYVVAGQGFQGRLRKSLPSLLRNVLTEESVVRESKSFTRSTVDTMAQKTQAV
In words: β-arrestin recruitment via C5aR1 activation in live CHO-K1 cells (PathHunter), antagonist mode. Type of experiment: cell-based. The following applies: antagonist mode; recombinant hC5a (EC90) as competing natural agonist; live CHO-K1 cells; read-out: [Antagonist] B-arrestin2 recruitment: Average IC50. Summed up:
(§1)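 Live CHO-K1 cells carry two galactosidase enzyme fragments, one fused to β-arrestin and one to C5aR1, so that β-arrestin recruitment restores enzyme activity. Agonist mode tests compounds alone. Antagonist mode tests them against recombinant hC5a at EC90, and IC50 values are reported in binned ranges.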
For orientation: Recruitment of arrestin is a read-out of receptor activation apart from second messengers.

The target of experiment [2] is T1, complement C5a receptor 1 (C5aR1). In words: β-arrestin recruitment via C5aR1 activation in live CHO-K1 cells (PathHunter), agonist mode. Format: cell-based. The procedure, abridged: as §1

Like-named read-outs stand apart in the source and are kept apart here. Bounds are passed on as bounds.

The IC50 is the concentration that gives 50% inhibition.

For `Cc1ccc2cc([C@H]3CC[C@H](c4c(F)cccc4F)CC3)c(=O)n(Cc3ncccc3C3CC3)c2n1` [compound 245, 1-((3-Cyclopropylpyridin-2-yl)methyl)-3-((1r,4r)-4-(2,6-difluorophenyl)cyclohexyl)-7-methyl-1,8-naphthyridin-2(1H)-one], in experiment [1], the concentration for half-maximal inhibition (IC50) was less than 0.5 µM. The “[Agonist] B-arrestin2 recruitment: Average EC50 (nM)” value (shortened to “[Agonist] B-arrestin2 recruitment”) in experiment [2] (at 10 μM) was “Non-Active at 10 μM”.

Take `Cc1cnc2cc([C@H]3CC[C@H](c4c(C)cccc4F)CC3)c(=O)n(Cc3ncccc3C(C)(F)F)c2n1` [compound 177, 5-((3-(1,1-Difluoroethyl)pyridin-2-yl)methyl)-7-((1r,4r)-4-(2-fluoro-6-methylphenyl)cyclohexyl)-3-methylpyrido[2,3-b]pyrazin-6(5H)-one]: the IC50 in experiment [1] is less than 0.5 µM. In addition, in experiment [2], the “[Agonist] B-arrestin2 recruitment” value is “Non-Active”.

`Cc1cnc2cc([C@H]3CC[C@H](c4c(C)cccc4F)CC3)c(=O)n(Cc3nccnc3OC(F)F)c2n1` [168B, 5-((3-(Difluoromethoxy)pyrazin-2-yl)methyl)-7-((1r,4r)-4-(2-fluoro-6-methylphenyl)cyclohexyl)-3-methylpyrido[2,3-b]pyrazin-6(5H)-one]: the half-maximal inhibitory concentration (IC50) in experiment [1] was less than 0.5 µM. In experiment [2] (at 10 μM), the “[Agonist] B-arrestin2 recruitment” value was “Non-Active at 10 μM”.

As for `Cc1cnc2cc([C@H]3CC[C@H](c4ncccc4C(F)(F)F)CC3)c(=O)n(Cc3ncccc3C(F)(F)F)c2n1` [compound 180, 3-Methyl-7-((1r,4r)-4-(3-(trifluoromethyl)pyridin-2-yl)cyclohexyl)-5-((3-(trifluoromethyl)pyridin-2-yl)methyl)pyrido[2,3-b]pyrazin-6(5H)-one], in experiment [1], the IC50 is less than 0.5 µM. Also, the “[Agonist] B-arrestin2 recruitment” value in experiment [2] (at 10 μM) is listed as “Non-Active at 10 μM”.

Regarding `Cc1cnc2cc([C@H]3CC[C@H](c4c(C)cccc4F)CC3)c(=O)n(Cc3ccccc3C(F)(F)F)c2n1` [compound 224, 7-((1r,4r)-4-(2-Fluoro-6-methylphenyl)cyclohexyl)-3-methyl-5-(2-(trifluoromethyl)benzyl)pyrido[2,3-b]pyrazin-6(5H)-one], the IC50 in experiment [1] is less than 0.5 µM. Further, the “[Agonist] B-arrestin2 recruitment” value in experiment [2] (at 10 μM) was “Non-Active at 10 μM”.

As for `Cc1cnc2cc(N3CCN(c4cc(F)cnc4C)CC3)c(=O)n(Cc3ncccc3C(F)(F)F)c2n1` [compound 69, 7-(4-(5-Fluoro-2-methylpyridin-3-yl)piperazin-1-yl)-3-methyl-5-((3-(trifluoromethyl)pyridin-2-yl)methyl)pyrido[2,3-b]pyrazin-6(5H)-one], in experiment [1], the IC50 is more than 100 µM. Besides, the “[Agonist] B-arrestin2 recruitment” value in experiment [2] was “Non-Active”.

Regarding `Cc1cnc2cc([C@H]3CC[C@H](c4c(C)cccc4F)CC3)c(=O)n(Cc3ncccc3OC3CC3)c2n1` [compound 238, 5-((3-Cyclopropoxypyridin-2-yl)methyl)-7-((1r,4r)-4-(2-fluoro-6-methylphenyl)cyclohexyl)-3-methylpyrido[2,3-b]pyrazin-6(5H)-one], the concentration for half-maximal inhibition (IC50) in experiment [1] was less than 0.5 µM. Also, the “[Agonist] B-arrestin2 recruitment” value in experiment [2] is “Non-Active”.

Consider `Cc1cnc2cc(C3CCN(c4c(C)ccnc4F)CC3)c(=O)n(Cc3ncccc3C(F)F)c2n1` [compound 141, 5-((3-(Difluoromethyl)pyridin-2-yl)methyl)-7-(1-(2-fluoro-4-methylpyridin-3-yl)piperidin-4-yl)-3-methylpyrido[2,3-b]pyrazin-6(5H)-one], for which the IC50 in experiment [1] was less than 0.5 µM. Further, the “[Agonist] B-arrestin2 recruitment” value in experiment [2] was “Non-Active”.

Consider `Cc1cccc(F)c1N1CCN(c2c(C)c3nccnc3n(Cc3ncccc3C(F)(F)F)c2=O)CC1` [compound 88, 7-(4-(2-Fluoro-6-methylphenyl)piperazin-1-yl)-8-methyl-5-((3-(trifluoromethyl)pyridin-2-yl)methyl)pyrido[2,3-b]pyrazin-6(5H)-one], for which the IC50 in experiment [1] is less than 0.5 µM. In addition, in experiment [2], the “[Agonist] B-arrestin2 recruitment” value is “Non-Active”.

Take `FC(F)(F)c1cccnc1CN1CC(C2CCN(c3ncccc3Cl)CC2)=Cc2nccnc21` [compound 170, 7-(1-(3-Chloropyridin-2-yl)piperidin-4-yl)-5-((3-(trifluoromethyl)pyridin-2-yl)methyl)-5,6-dihydropyrido[2,3-b]pyrazine]: the IC50 in experiment [1] was less than 0.5 µM. In addition, the “[Agonist] B-arrestin2 recruitment” value in experiment [2] (at 10 μM) is recorded as “Non-Active at 10 μM”.

As for `Cc1cnc2cc([C@@H]3CC[C@@H](c4c(C)cccc4F)C3)c(=O)n(Cc3nccnc3C)c2n1` [172D, 7-((1R,3R)-3-(2-Fluoro-6-methylphenyl)cyclopentyl)-3-methyl-5-((3-methylpyrazin-2-yl)methyl)pyrido[2,3-b]pyrazin-6(5H)-one], in experiment [1], the half-maximal inhibitory concentration (IC50) lay in the range of 5 to 100 µM. The “[Agonist] B-arrestin2 recruitment” value in experiment [2] (at 10 μM) is reported as “Non-Active at 10 μM”.

For the compound `Cc1cccc(F)c1N1CCC(c2cc3nccnc3n(Cc3ncccc3C(F)(F)F)c2=O)CC1` [compound 21, 7-(1-(2-Fluoro-6-methylphenyl)piperidin-4-yl)-5-((3-(trifluoromethyl)pyridin-2-yl)methyl)pyrido[2,3-b]pyrazin-6(5H)-one], the half-maximal inhibitory concentration (IC50) in experiment [1] is less than 0.5 µM. Moreover, the “[Agonist] B-arrestin2 recruitment” value in experiment [2] was “Non-Active”.

As to `Cc1cccc(F)c1[C@H]1CC[C@H](c2cc3ncc(CC(F)F)nc3n(Cc3ncccc3C(F)(F)F)c2=O)CC1` [compound 231, 3-(2,2-Difluoroethyl)-7-((1r,4r)-4-(2-fluoro-6-methylphenyl)cyclohexyl)-5-((3-(trifluoromethyl)pyridin-2-yl)methyl)pyrido[2,3-b]pyrazin-6(5H)-one], the IC50 in experiment [1] was less than 0.5 µM. Besides, the “[Agonist] B-arrestin2 recruitment” value in experiment [2] (at 10 μM) is listed as “Non-Active at 10 μM”.

Regarding `Cc1cnc2cc(C3CCN(c4c(C)cccc4F)CC3)c(=O)n(Cc3ncccc3OC(F)F)c2n1` [compound 66, 5-((3-(Difluoromethoxy)pyridin-2-yl)methyl)-7-(1-(2-fluoro-6-methylphenyl)piperidin-4-yl)-3-methylpyrido[2,3-b]pyrazin-6(5H)-one], the IC50 in experiment [1] is less than 0.5 µM. Besides, the “[Agonist] B-arrestin2 recruitment” value in experiment [2] was “Non-Active”.

Regarding `Cc1c(N2CCC(c3cc4nccnc4n(Cc4ccccc4C(F)(F)F)c3=O)CC2)ccnc1F` [compound 29, 7-(1-(2-Fluoro-3-methylpyridin-4-yl)piperidin-4-yl)-5-(2-(trifluoromethyl)benzyl)pyrido-[2,3-b]pyrazin-6(5H)-one], the IC50 in experiment [1] was 5 to 100 µM. Further, the “[Agonist] B-arrestin2 recruitment” value in experiment [2] is given as “Non-Active”.

Consider `Cc1ccc2nc(C3CCN(c4c(C)cccc4F)CC3)c(=O)n(Cc3nccnc3C(F)(F)F)c2c1` [144A, 3-(1-(2-Fluoro-6-methylphenyl)piperidin-4-yl)-7-methyl-1-((3-(trifluoromethyl)pyrazin-2-yl)methyl)quinoxalin-2(1H)-one], for which the half-maximal inhibitory concentration (IC50) in experiment [1] is more than 100 µM. Also, the “[Agonist] B-arrestin2 recruitment” value in experiment [2] (at 10 μM) is listed as “Non-Active at 10 μM”.

For `Cc1cnc2c(C)c(N3CCN(c4c(C)cccc4F)CC3)c(=O)n(Cc3ncccc3C(F)(F)F)c2n1` [compound 118, 7-(4-(2-fluoro-6-methylphenyl)piperazin-1-yl)-3,8-dimethyl-5-((3-(trifluoromethyl)pyridin-2-yl)methyl)pyrido[2,3-b]pyrazin-6(5H)-one], the IC50 in experiment [1] was in the range of 0.5 to 5 µM. Besides, the “[Agonist] B-arrestin2 recruitment” value in experiment [2] is “Non-Active”.

In the case of `Cc1cccc(F)c1N1CCN(c2cc3nccnc3n(Cc3ncccc3OC(F)(F)F)c2=O)CC1` [compound 123, 7-(4-(2-Fluoro-6-methylphenyl)piperazin-1-yl)-5-((3-(trifluoromethoxy)pyridin-2-yl)methyl)pyrido[2,3-b]pyrazin-6(5H)-one], the IC50 in experiment [1] was less than 0.5 µM. Besides, the “[Agonist] B-arrestin2 recruitment” value in experiment [2] is on record as “Non-Active”.

`COc1nccnc1Cn1c(=O)c(C2CCN(c3c(C)cccc3F)CC2)cc2nccnc21` [compound 5, 7-(1-(2-Fluoro-6-methylphenyl)piperidin-4-yl)-5-((3-methoxypyrazin-2-yl)methyl)pyrido[2,3-b]pyrazin-6(5H)-one]: the concentration for half-maximal inhibition (IC50) in experiment [1] lay within 0.5 to 5 µM. Also, the “[Agonist] B-arrestin2 recruitment” value in experiment [2] was “Non-Active”.

In the case of `O=c1c(C2CCN(c3cccnc3C(F)(F)F)CC2)cc2nccnc2n1Cc1ccccc1F` [compound 18, 5-(2-Fluorobenzyl)-7-(1-(2-(trifluoromethyl)pyridin-3-yl)piperidin-4-yl)pyrido[2,3-b]pyrazin-6(5H)-one], in experiment [1], the IC50 was more than 100 µM. For the same compound, the “[Agonist] B-arrestin2 recruitment” value in experiment [2] was “Non-Active”.

With `Cc1cnc2cc([C@H]3CC[C@H](c4cnccc4C(C)(F)F)CC3)c(=O)n(Cc3ncccc3C(F)(F)F)c2n1` [compound 188, 7-((1r,4r)-4-(4-(1,1-Difluoroethyl)pyridin-3-yl)cyclohexyl)-3-methyl-5-((3-(trifluoromethyl)pyridin-2-yl)methyl)pyrido[2,3-b]pyrazin-6(5H)-one], in experiment [1], the IC50 is less than 0.5 µM. Besides, the “[Agonist] B-arrestin2 recruitment” value in experiment [2] (at 10 μM) was “Non-Active at 10 μM”.

For `Cc1cccc(F)c1N1CCC(c2c(C)c3nccnc3n(Cc3ccccc3C(F)(F)F)c2=O)CC1` [compound 2, 7-(1-(2-Fluoro-6-methylphenyl)piperidin-4-yl)-8-methyl-5-(2-(trifluoromethyl)benzyl)pyrido[2,3-b]pyrazin-6(5H)-one], the half-inhibitory concentration (IC50) in experiment [1] is 0.5 to 5 µM. Besides, the “[Agonist] B-arrestin2 recruitment” value in experiment [2] is listed as “Non-Active”.
